Assay results: ChEMBL document CHEMBL6074641, “Polypharmacological Drug Design Guided by Integrating Phenotypic and Restricted Fragment Docking Strategies” (J Med Chem, 2024)
The source made the active and inactive calls. No cut-off for these calls is given here.

Key:
[1] = molecular target: ALK tyrosine kinase receptor (Homo sapiens, UniProt Q9UM73, E1167A); assay: Inhibition of ALK E1167A mutant (unknown origin) expressed in Escherichia coli BL21 (DE3)
[2] = molecular target: Mitogen-activated protein kinase kinase kinase kinase 4 (Homo sapiens, UniProt O95819); assay: Inhibition of MAP4K4 (unknown origin) at 1 uM
Microglia = assay: Anti-necroptosis activity in LPS/zVAD stimulated mouse primary microglia transfected with flag-tagged RIPK1 plasmid assessed as protection of microglia cells at 100 nM; format: functional, cell-based
Cytochrome P450 2C8 = Cytochrome P450 2C8 (Homo sapiens, UniProt P10632); assay: Inhibition of CYP2C8 (unknown origin) incubated for 10 mins in presence of NADPH by LC-MS/MS analysis; format: ADME
[3] = Cmax in C57BL/6 mouse brain at 10 mg/kg, po measured upto 24 hrs by LC-MS/MS analysis; format: ADME, organism-based
[4] = Tmax in C57BL/6 mouse brain at 10 mg/kg, po measured upto 24 hrs by LC-MS/MS analysis; format: ADME, organism-based
Mus musculus = assay: Anti-alzheimer activity in 8 month old 3xTg mouse model assessed as reversal of transcriptomic changes in Hba-a1 at 10 mg/kg, po; format: functional, organism-based

ALK tyrosine kinase receptor, sequence (Q9UM73 19-1620 E1167A limits assumed): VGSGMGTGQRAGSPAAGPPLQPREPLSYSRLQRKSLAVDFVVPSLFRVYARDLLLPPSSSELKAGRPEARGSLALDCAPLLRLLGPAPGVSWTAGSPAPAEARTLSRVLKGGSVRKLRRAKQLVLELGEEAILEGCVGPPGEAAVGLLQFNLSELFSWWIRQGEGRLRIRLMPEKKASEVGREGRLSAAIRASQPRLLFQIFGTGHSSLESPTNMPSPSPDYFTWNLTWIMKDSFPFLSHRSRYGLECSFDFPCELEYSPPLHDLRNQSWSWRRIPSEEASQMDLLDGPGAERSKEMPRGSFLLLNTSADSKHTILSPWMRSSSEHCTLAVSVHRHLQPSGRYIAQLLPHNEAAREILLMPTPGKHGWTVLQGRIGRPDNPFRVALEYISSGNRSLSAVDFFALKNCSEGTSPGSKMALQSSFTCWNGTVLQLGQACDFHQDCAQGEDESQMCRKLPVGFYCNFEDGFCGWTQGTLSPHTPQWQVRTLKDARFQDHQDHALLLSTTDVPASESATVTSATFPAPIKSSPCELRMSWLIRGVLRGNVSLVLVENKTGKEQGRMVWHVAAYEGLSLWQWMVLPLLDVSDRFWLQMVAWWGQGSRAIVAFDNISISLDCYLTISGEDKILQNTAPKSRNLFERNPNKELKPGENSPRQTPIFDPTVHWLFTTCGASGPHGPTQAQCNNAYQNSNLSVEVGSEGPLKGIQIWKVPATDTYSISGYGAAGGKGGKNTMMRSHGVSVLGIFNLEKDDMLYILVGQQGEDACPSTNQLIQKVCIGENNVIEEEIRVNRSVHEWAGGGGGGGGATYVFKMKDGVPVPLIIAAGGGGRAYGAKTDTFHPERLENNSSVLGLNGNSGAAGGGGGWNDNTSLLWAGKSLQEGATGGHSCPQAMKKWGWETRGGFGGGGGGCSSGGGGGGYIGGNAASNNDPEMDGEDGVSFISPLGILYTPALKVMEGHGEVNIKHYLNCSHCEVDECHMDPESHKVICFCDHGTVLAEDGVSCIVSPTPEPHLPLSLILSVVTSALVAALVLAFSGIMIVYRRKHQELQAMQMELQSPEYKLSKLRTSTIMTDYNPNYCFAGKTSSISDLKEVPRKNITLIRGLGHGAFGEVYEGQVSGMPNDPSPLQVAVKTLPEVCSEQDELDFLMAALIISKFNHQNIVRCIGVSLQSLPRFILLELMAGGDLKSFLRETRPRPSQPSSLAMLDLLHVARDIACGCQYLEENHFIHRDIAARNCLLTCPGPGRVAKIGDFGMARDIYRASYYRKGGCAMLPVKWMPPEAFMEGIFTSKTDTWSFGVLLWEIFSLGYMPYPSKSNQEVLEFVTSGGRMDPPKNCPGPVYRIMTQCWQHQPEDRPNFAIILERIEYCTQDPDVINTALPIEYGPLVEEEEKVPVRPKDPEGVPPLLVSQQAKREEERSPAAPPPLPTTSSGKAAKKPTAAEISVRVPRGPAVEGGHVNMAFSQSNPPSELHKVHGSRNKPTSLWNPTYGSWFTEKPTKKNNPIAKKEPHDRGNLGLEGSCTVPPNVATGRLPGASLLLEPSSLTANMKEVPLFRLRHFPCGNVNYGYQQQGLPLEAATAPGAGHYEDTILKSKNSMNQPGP
Cytochrome P450 2C8, sequence (P10632 whole entry): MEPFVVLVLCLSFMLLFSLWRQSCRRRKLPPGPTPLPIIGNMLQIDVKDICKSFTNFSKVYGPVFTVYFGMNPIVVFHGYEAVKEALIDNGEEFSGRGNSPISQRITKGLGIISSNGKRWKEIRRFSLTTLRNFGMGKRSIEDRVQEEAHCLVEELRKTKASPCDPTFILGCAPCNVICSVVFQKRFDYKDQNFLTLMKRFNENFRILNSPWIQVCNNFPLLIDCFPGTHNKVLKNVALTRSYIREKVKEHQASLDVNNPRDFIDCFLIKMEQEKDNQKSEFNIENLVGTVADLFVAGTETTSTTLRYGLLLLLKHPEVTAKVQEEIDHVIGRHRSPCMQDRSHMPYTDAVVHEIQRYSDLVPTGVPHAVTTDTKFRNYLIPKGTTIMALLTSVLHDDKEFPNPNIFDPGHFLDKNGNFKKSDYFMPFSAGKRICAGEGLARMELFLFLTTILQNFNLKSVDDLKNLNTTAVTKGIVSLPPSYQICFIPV
Mitogen-activated protein kinase kinase kinase kinase 4, sequence (O95819 2-1239 limits assumed): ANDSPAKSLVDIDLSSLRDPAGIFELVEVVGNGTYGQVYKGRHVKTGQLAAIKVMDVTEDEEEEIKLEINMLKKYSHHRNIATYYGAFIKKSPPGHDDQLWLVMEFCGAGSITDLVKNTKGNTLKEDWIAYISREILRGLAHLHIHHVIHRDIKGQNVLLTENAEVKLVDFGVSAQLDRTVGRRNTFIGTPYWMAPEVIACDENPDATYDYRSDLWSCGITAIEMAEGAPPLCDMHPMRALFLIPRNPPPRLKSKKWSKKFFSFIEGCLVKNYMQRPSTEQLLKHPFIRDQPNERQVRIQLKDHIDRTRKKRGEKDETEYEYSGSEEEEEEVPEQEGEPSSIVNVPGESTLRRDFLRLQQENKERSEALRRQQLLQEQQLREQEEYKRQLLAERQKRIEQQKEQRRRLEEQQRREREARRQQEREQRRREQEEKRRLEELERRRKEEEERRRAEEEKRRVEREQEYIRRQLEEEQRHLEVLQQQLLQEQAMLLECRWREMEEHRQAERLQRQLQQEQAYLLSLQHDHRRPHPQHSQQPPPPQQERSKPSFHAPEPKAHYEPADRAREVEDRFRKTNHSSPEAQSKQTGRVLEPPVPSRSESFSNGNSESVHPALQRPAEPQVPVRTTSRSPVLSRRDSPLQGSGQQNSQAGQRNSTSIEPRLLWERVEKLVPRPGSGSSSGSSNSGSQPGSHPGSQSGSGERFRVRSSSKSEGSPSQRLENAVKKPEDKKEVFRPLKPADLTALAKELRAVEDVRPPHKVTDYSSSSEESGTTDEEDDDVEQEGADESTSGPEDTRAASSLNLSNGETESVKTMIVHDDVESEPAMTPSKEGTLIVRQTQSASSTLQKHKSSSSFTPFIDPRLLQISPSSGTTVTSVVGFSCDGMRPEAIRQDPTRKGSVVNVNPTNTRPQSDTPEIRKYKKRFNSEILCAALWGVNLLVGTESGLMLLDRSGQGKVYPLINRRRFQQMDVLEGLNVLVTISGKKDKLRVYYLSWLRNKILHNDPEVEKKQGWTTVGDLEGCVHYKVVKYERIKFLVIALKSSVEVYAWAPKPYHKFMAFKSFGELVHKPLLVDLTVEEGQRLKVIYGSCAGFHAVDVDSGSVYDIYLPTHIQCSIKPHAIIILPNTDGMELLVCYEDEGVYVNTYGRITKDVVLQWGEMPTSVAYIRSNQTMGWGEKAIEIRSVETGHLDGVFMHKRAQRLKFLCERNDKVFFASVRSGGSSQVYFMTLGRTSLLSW

SMILES: Cc1cc(F)cc(Nc2ncc(Nc3ccc(SC(F)(F)F)cc3)cc2C(N)=O)c1
- IC50 [1]: 4.43 µM
- inhibition [2]: Active
- Activity (Microglia): inactive
- IC50 (Cytochrome P450 2C8): 6.8 µM
- Cmax [3]: 290 ng/mL
- Tmax [4]: 5.97 h
- Activity (Mus musculus): Active
